Assay results published in publication PMC9505425, “Targeting of the Mitochondrial TET1 Protein by Pyrrolo[3,2-b]pyrrole Chelators” (International Journal of Molecular Sciences, 2022).
Several values for one entry are separate records, joined by “and”; a condition that tells them apart may be missing. Equal values may be shown once.

Assays:
[1] = MTT cytotoxicity assay, HF-P4; type: cell-based, human; settings: human, HF-P4 normal human dermal fibroblasts, repeats, read-out: Cell viability %
Protocol: (§1) The effects of the tested compounds 1–6 on HF-P4, U-118 MG, H1299, BT-20, and Caov-3 cell lines were evaluated by the MTT assay during 48 h treatment (Table 2 and Tables S2–S31). In all tested compounds, we recognized a difference in cytotoxicity between healthy cells (HF-P4) and cancer cell lines (BT-20, Caov-3, and H-1299). […] In the case of ovarian cancer, the authors discovered oncogenic and poor prognosis roles of TET1 in epithelial ovarian carcinoma (EOC). TET1 is believed to demethylate the epigenome and activate numerous oncogenic pathways in EOC. The aforementioned study presents a new mechanism where TET1 contributes to tumor development through collaboration with CK2α [21]. The overexpression of the TET1 protein was also found in triple negative breast cancer and was associated with an activation of PI3K/mTOR pathway and decreased overall survival.
(§2) A human dermal fibroblast cell line was used for intracellular localization and cytotoxicity assay (MTT). Human fibroblast cells HF-P4 (human fibroblasts—patient 4) are normal dermal fibroblasts, which were obtained from the residual skin of a healthy patient who underwent plastic surgery (with informed consent of the patient). HF-P4 cell lines were obtained from the Department of Plastic Surgery, Third Faculty of Medicine, Charles University and University Hospital Královské Vinohrady, Prague, Czech Republic, as described by Szabo et al., 2011, and Dvořánková et al., 2019 [88, 89], and have been processed in accordance with the relevant local ethics committee and the Declaration of Helsinki protection of patients’ rights and benefits with written and signed informed consent of each patient. Cells were cultivated under standard conditions in Dulbecco’s modified Eagle’s medium (ATCC, Manassas, VA, USA), supplemented with 10% FBS and streptomycin (100 μg/mL) at 37 °C at a 5% CO2 atmosphere.
(§3) For the cytotoxicity assay, we used the following cell lines: human glioblastoma cell line U118-MG, human mammary gland/breast cell line BT-20, human ovary adenocarcinoma cell line Caov-3, and non-small-cell lung carcinoma H-1299. As previously mentioned, these cell lines contain a high level of the TET1 protein, which corresponds to a lower overall survival. In addition to these cell cultures, we used the human dermal fibroblast cell line HF-P4 as a healthy control. Determination of cytotoxicity was performed using the MTT [3-(4,5-dimethylthiazol-2-yl)-2,5-diphenyltetrazolium bromide] colorimetric assay. Viable cells from each cell line were cultured in 96-well plates (VWR, Stříbrná Skalice, Czech Republic) at a density of 1.0 × 10^5 cells per well and allowed to grow for 24 h in 200 μL of recommended medium. After a 1-day incubation, the medium was replaced with solutions of compounds 1–6 at concentration ranges of 0.1–20 μM. Each concentration was measured four times within one test, and the entire test was repeated three times. Tested compounds 1–6 were dissolved in DMSO and then diluted with corresponding medium to a final volume of 200 μL (maximum 1% DMSO). After 48 h exposure, cells were treated with 175 μL of MTT solution (P-LAB, Prague, Czech Republic) for 2 h. In the next step, MTT solution was removed, and 125 μL of DMSO (Penta, Prague, Czech Republic) was added to solubilize dark crystals of formazan formed in intact cells, and absorbance was measured at 570 nm by the enzyme-linked immunoabsorbent assay reader Infinite® 200 PRO (Tecan, Männedorf, Switzerland). The final DMSO concentration was smaller than 1% (v/v). The absorbance of untreated cells was considered 100%, and IC50 values were calculated by the GraphPad Prism 8 software. As a parameter for cytotoxicity, we used a concentration that inhibits 50% of cell growth (IC50).

HF-P4 cells = experiment: MTT cytotoxicity assay, HF-P4; type: cell-based, human; settings: 48 h; for Cell viability %: repeats
Protocol: as §1, §2, §3

Caov-3 cells = experiment: MTT cytotoxicity assay, Caov-3; type: cell-based, human
Protocol: as §1
The human ovary adenocarcinoma cell line (Caov-3), purchased from ATCC (Caov-3 (ATCC® HTB-75™), Manassas, VA, USA), was used for the cytotoxicity assay (MTT). Caov-3 cells were cultivated under standard conditions in Dulbecco’s modified Eagle’s medium (ATCC, Manassas, VA, USA) supplemented with 10% FBS and streptomycin (100 μg/mL) at 37 °C at a 5% CO2 atmosphere.
as §3

BT-20 cells = experiment: MTT cytotoxicity assay, BT-20; type: cell-based, human
Protocol: as §1
The human mammary gland/breast cell line (BT-20), purchased from ATCC (BT-20 (ATCC® HTB-19™), Manassas, VA, USA), was used for the cytotoxicity assay (MTT), and BT-20 cells were cultivated under standard conditions in Eagle’s minimum essential medium (ATCC, Manassas, VA, USA) supplemented with 10% FBS and streptomycin (100 μg/mL) at 37 °C at a 5% CO2 atmosphere.
as §3

SMILES: Cc1ccc(-n2c(-c3ccc(C(=O)N/N=C/c4cc(F)ccc4O)cc3)cc3c2cc(-c2ccc(C(=O)N/N=C/c4cc(F)ccc4O)cc2)n3-c2ccc(C)cc2)cc1 [Compound 3]
- viability at 48 h, 0.1 µM ([1]; HF-P4, 100 nM): 95.8%
- viability at 48 h, 0.5 µM ([1]; HF-P4, 500 nM): 99.9%
- viability at 48 h, 0.75 µM ([1]; HF-P4, 750 nM): 107%
- viability at 48 h, 1 µM ([1]; HF-P4, 1 uM): 100%
- viability at 48 h, 2.5 µM ([1]; HF-P4, 2.5 uM): 87.1%
- viability at 48 h, 5 µM ([1]; HF-P4, 5 uM): 85.8%
- viability at 48 h, 7.5 µM ([1]; HF-P4, 7.5 uM): 78.7%
- viability at 48 h, 10 µM ([1]; HF-P4, 10 uM): 82.6%
- viability at 48 h, 15 µM ([1]; HF-P4, 15 uM): 65.6%
- viability at 48 h, 20 µM ([1]; HF-P4, 20 uM): 59%
- Cell viability % (HF-P4 cells; HF-P4, 100 nM, 0.1 µM): 96.12% and 98.08%
- Cell viability % (HF-P4 cells; HF-P4, 500 nM, 0.5 µM): 100.1756% and 103.312%
- Cell viability % (HF-P4 cells; HF-P4, 750 nM, 0.75 µM): 98.1566% and 91.216%
- Cell viability % (HF-P4 cells; HF-P4, 1 uM, 1 µM): 97.13% and 98.88%
- Cell viability % (HF-P4 cells; HF-P4, 2.5 uM, 2.5 µM): 92.78% and 93.78%
- Cell viability % (HF-P4 cells; HF-P4, 5 uM, 5 µM): 90.27% and 73.392%
- Cell viability % (HF-P4 cells; HF-P4, 7.5 uM, 7.5 µM): 83.18% and 77.088%
- Cell viability % (HF-P4 cells; HF-P4, 10 uM, 10 µM): 74.37% and 72.544%
- Cell viability % (HF-P4 cells; HF-P4, 15 uM, 15 µM): 66.4% and 65.2%
- Cell viability % (HF-P4 cells; HF-P4, 20 uM, 20 µM): 62.78% and 65.696%
- IC50 (HF-P4 cells; Homo sapiens, MTT): > 20 µM
- Cell viability % (Caov-3 cells; Caov-3, 100 nM, 48 h, repeats, 0.1 µM): 80.39% and 71.14%
- Cell viability % (Caov-3 cells; Caov-3, 500 nM, 48 h, repeats, 0.5 µM): 93.5% and 75.39% and 98.76%
- Cell viability % (Caov-3 cells; Caov-3, 750 nM, 48 h, repeats, 0.75 µM): 86.6015% and 81.49% and 112.9009%
- Cell viability % (Caov-3 cells; Caov-3, 1 uM, 48 h, repeats, 1 µM): 86.92% and 97.81%
- Cell viability % (Caov-3 cells; Caov-3, 2.5 uM, 48 h, repeats, 2.5 µM): 89.39% and 98.69%
- Cell viability % (Caov-3 cells; Caov-3, 5 uM, 48 h, repeats, 5 µM): 67.61% and 86.52%
- Cell viability % (Caov-3 cells; Caov-3, 7.5 uM, 48 h, repeats, 7.5 µM): 83.04% and 61.94% and 104.0087%
- Cell viability % (Caov-3 cells; Caov-3, 10 uM, 48 h, repeats, 10 µM): 67.37% and 81.12%
- Cell viability % (Caov-3 cells; Caov-3, 15 uM, 48 h, repeats, 15 µM): 57.51% and 62.97%
- Cell viability % (Caov-3 cells; Caov-3, 20 uM, 48 h, repeats, 20 µM): 34.98% and 37.9%
- viability at 0.1 µM (Caov-3 cells; Homo sapiens, Caov-3, 48 h, Caov-3, 100 nM, repeats, read-out: Cell viability %): 84.4%
- viability at 1 µM (Caov-3 cells; Homo sapiens, Caov-3, 48 h, Caov-3, 1 uM, repeats, read-out: Cell viability %): 89.4%
- viability at 2.5 µM (Caov-3 cells; Homo sapiens, Caov-3, 48 h, Caov-3, 2.5 uM, repeats, read-out: Cell viability %): 85.3%
- viability at 5 µM (Caov-3 cells; Homo sapiens, Caov-3, 48 h, Caov-3, 5 uM, repeats, read-out: Cell viability %): 70.6%
- viability at 10 µM (Caov-3 cells; Homo sapiens, Caov-3, 48 h, Caov-3, 10 uM, repeats, read-out: Cell viability %): 65.4%
- viability at 15 µM (Caov-3 cells; Homo sapiens, Caov-3, 48 h, Caov-3, 15 uM, repeats, read-out: Cell viability %): 59%
- viability at 20 µM (Caov-3 cells; Homo sapiens, Caov-3, 48 h, Caov-3, 20 uM, repeats, read-out: Cell viability %): 35.5%
- IC50 (Caov-3 cells; Homo sapiens, Caov-3, MTT, 48 h): 17.8 µM
- Cell viability % (BT-20 cells; BT-20, 100 nM, 48 h, repeats, 0.1 µM): 73.86% and 70.55%
- Cell viability % (BT-20 cells; BT-20, 500 nM, 48 h, repeats, 0.5 µM): 90.62% and 106.8284%
- Cell viability % (BT-20 cells; BT-20, 750 nM, 48 h, repeats, 0.75 µM): 90.49% and 101.3318%
- Cell viability % (BT-20 cells; BT-20, 1 uM, 48 h, repeats, 1 µM): 95.2857% and 94.7%
- Cell viability % (BT-20 cells; BT-20, 2.5 uM, 48 h, repeats, 2.5 µM): 99.34% and 98.89%
- Cell viability % (BT-20 cells; BT-20, 5 uM, 48 h, repeats, 5 µM): 91.79% and 101.4304%
- Cell viability % (BT-20 cells; BT-20, 7.5 uM, 48 h, repeats, 7.5 µM): 71.93% and 72.16%
- Cell viability % (BT-20 cells; BT-20, 10 uM, 48 h, repeats, 10 µM): 60.86% and 57.19%
- Cell viability % (BT-20 cells; BT-20, 15 uM, 48 h, repeats, 15 µM): 53.94% and 48.1349%
- Cell viability % (BT-20 cells; BT-20, 20 uM, 48 h, repeats, 20 µM): 33.39% and 29.51%
- viability at 0.1 µM (BT-20 cells; Homo sapiens, BT-20, 48 h, BT-20, 100 nM, repeats, read-out: Cell viability %): 83.4%
- viability at 0.5 µM (BT-20 cells; Homo sapiens, BT-20, 48 h, BT-20, 500 nM, repeats, read-out: Cell viability %): 95.3%
- viability at 0.75 µM (BT-20 cells; Homo sapiens, BT-20, 48 h, BT-20, 750 nM, repeats, read-out: Cell viability %): 99.7%
- viability at 1 µM (BT-20 cells; Homo sapiens, BT-20, 48 h, BT-20, 1 uM, repeats, read-out: Cell viability %): 104%
- viability at 2.5 µM (BT-20 cells; Homo sapiens, BT-20, 48 h, BT-20, 2.5 uM, repeats, read-out: Cell viability %): 99.4%
- viability at 5 µM (BT-20 cells; Homo sapiens, BT-20, 48 h, BT-20, 5 uM, repeats, read-out: Cell viability %): 85.1%
- viability at 7.5 µM (BT-20 cells; Homo sapiens, BT-20, 48 h, BT-20, 7.5 uM, repeats, read-out: Cell viability %): 73.1%
- viability at 10 µM (BT-20 cells; Homo sapiens, BT-20, 48 h, BT-20, 10 uM, repeats, read-out: Cell viability %): 62.9%
- viability at 15 µM (BT-20 cells; Homo sapiens, BT-20, 48 h, BT-20, 15 uM, repeats, read-out: Cell viability %): 48.9%
- viability at 20 µM (BT-20 cells; Homo sapiens, BT-20, 48 h, BT-20, 20 uM, repeats, read-out: Cell viability %): 41%
- IC50 (BT-20 cells; Homo sapiens, BT-20, MTT, 48 h): 13.7 µM
- melting point: 337 to 338 °C
